Data published in patent publication US12116365B2, “Heterocyclic compounds and uses thereof” (Opna Bio SA, priority 2015, dated 2024).
Entries after “also recorded” stand apart in the source; their conditions may differ.

How the values were obtained:
[1] = Rat PK, cassette dosing, IV and PO; format: in vivo; details: for Cl (mL/min/Kg) / Vss (L/Kg) / AUC / Cmax / Tmax / half-life: Mean (SE); for AUC / Cmax / Tmax / half-life / bioavailability: plasma
Description: Rat PK data was determined using a cassette dosing format with 5 compounds administered to each of three rats for IV and three rats for PO. The IV dose was 1 mg/kg for each compound in 8.75% solutol, 8.75% ethanol, 12.5% DMSO and 70% water by volume. The PO dose was 2 mg/kg for each compound in 1% methylcellulose in water, 10% DMSO by volume. Plasma IV samples were collected at 15 min, 30 min, 1 hr, 2 hrs, 4 hrs, 8 hrs, and 24 hrs. Plasma PO samples were collected at 30 min, 1 hr, 2 hrs, 4 hrs, 8 hrs, and 24 hrs. Plasma drug concentrations were determined by LC/MS/MS after standard curve calibration for each test article. Dosing solutions were also analyzed for test article and used to calculate the administered dose. The PK parameters were calculated using WinNonLin (v 6.3, Phoenix 64, Pharsight) using a noncompartmental model.
Tables 1 and 2 show comparative data for both intravenous (IV) and peroral (PO) administration in rat for Compound P-001 of this disclosure and a similar structural compound disclosed in the WO 2014/145051, Compound Z. Values are reported as the Mean with the Standard Error (SE) in parentheses.

IPC298 Xenograft = assay: IPC298 xenograft model, tumor growth; format: in vivo, mice; details: for antitumor activity (in words): 10 mg/kg po QD x16; for Average Tumor Volume (mm^3) / Tumor Size (Day 27, mm^3) / TGI (%): 10 mg/kg po QD; for TGI (%): tumor growth inhibition
Description: Treatment: The treatments started on Day 11 after tumor inoculation when the mean tumor size reached approximately 150 mm^3. Mice were randomized into 10 study groups and each group consisted of 8 mice. The test articles were administrated to the tumor-bearing mice according to predetermined treatment regimen as shown in Table 3.
Tumor measurements and the endpoints: The major endpoint was to see if the tumor growth could be delayed or regressed. Tumor size was measured twice a week in two dimensions using a caliper, and the volume was expressed in mm^3 using the formula: V=0.5a×b^2 where a and b are the long and short diameters of the tumor, respectively. The tumor size was then used for calculation of tumor growth inhibition (TGI, in percent). The TGI value is an indication of antitumor effectiveness: TGI=(1−T/C)×100%. T and C are the means of relative tumor volumes of the treated and control groups, respectively. T and C are calculated using the formula: T=Td/T0×100%, C=Cd/C0×100%, where Td and Cd are tumor volumes of the treated and control animals, respectively, on Day 28 after tumor inoculation; T0 and C0 are tumor volumes of the treated and control animals, respectively, at the start of the treatment

[2] = Toxicity profile, body weight in Ba/F3 splenomegaly model; format: in vivo; parameters: Delta Body Weight Loss: unit not given here; details: for observed toxicity (in words): 10 mg/kg over 7 days of dosing; for Delta Body Weight Loss: 10 mg/kg oral QD
Description: The […] cell line, Ba/F3, depends on the addition of IL-3 for growth in cell culture. However Ba/F3 cells engineered to express a full length oncogene is capable of rendering Ba/F3 cells factor-independent, but become apoptotic when the oncogene or downstream signaling is inhibited by the addition of small molecule inhibitors. When injected into the tail veins of nude mice, the factor-independent Ba/F3 cells home to the spleen and proliferate to cause a marked splenomegaly. The in vivo proliferation of the factor-independent Ba/F3 cells and appearance of splenomegaly are directly dependent on the activity of the Ba/F3 cells and can be blocked by oral administration of compounds that are effective inhibitors of cell growth. Therefore, this animal model can be used to ascertain the effective doses for Ba/F3 cell inhibition, evaluation of both PK/PD effects as well as a readout of toxicity or MTD.
FIG. 2 illustrates the observed toxicity when dosing Compound P-001 and Compound Z at 10 mg/kg to nu/nu mice over a period of 7 days.

[3] = Table 2, titled Peroral (PO) Administration in Rat
[4] = 1 mg/kg, Table 1, titled Intravenous (IV) Administration in Rat
[5] = 2 mg/kg, Table 2, titled Peroral (PO) Administration in Rat

Compound | Cl (mL/min/Kg) [1, 3] | Vss (L/Kg) [1, 3] | AUC [1, 4] | Cmax [1, 4] | Tmax [1, 4] | half-life [1, 4] | AUC [1, 5] | bioavailability [1, 5] | antitumor activity (in words) (IPC298 Xenograft) | Average Tumor Volume (mm^3) (IPC298 Xenograft; Day 0) | Average Tumor Volume (mm^3) (IPC298 Xenograft; Day 4) | Average Tumor Volume (mm^3) (IPC298 Xenograft; Day 6) | Average Tumor Volume (mm^3) (IPC298 Xenograft; Day 8) | Average Tumor Volume (mm^3) (IPC298 Xenograft; Day 11) | Average Tumor Volume (mm^3) (IPC298 Xenograft; Day 13) | Tumor Size (Day 27, mm^3) (IPC298 Xenograft) | TGI (%) (IPC298 Xenograft) | observed toxicity (in words) [2] | Delta Body Weight Loss ([2]; Day 1) | Delta Body Weight Loss ([2]; Day 2) | also measured
Cc1noc(C)c1-c1cnc2c(-c3ccc(C(=O)O)cc3)cn(C(C)(c3ccccn3)c3ccccn3)c2c1 [Compound P-001, 4-(1-(1,1-di(pyridin-2-yl)ethyl)-6-(3,5-dimethylisoxazol-4-yl)-1H-pyrrolo[3,2-b]pyridin-3-yl)benzoic acid] | 3 (0) mL/min/Kg | 0.469 (0.015) L/Kg | 7670 ng·h/mL | 1210 ng/mL | 40.2 min | 248 min | 7670 ng·h/mL | 103% | strong antitumor activity; also recorded: strong therapeutic efficacy | 124.7 mm^3 | 94.5 mm^3 | 91.5 mm^3 | 90.0 mm^3 | 96.9 mm^3 | 99.2 mm^3 | 99.2 ± 13.5 mm^3 | 112% | no toxicity was observed | 0 | 0.75 | rat PK compared to Compound Z (in words) ([1]; IV and PO): dramatic improvement; Delta Body Weight Loss ([2]; Day 3): 1.375; Delta Body Weight Loss ([2]; Day 5): 1.125; Delta Body Weight Loss ([2]; Day 6): 1.825; Delta Body Weight Loss ([2]; Day 7): 2.075
Cc1noc(C)c1-c1cnc2c(-c3ccc(C(=O)O)cc3)cn(C(c3ccccn3)c3ccccn3)c2c1 [Compound Z, reference compound] | 36 (4) mL/min/Kg | 1.061 (0.109) L/Kg | 125 ng·h/mL | 80 ng/mL | 30 min | 78.6 min | 125 ng·h/mL | 17% | moderate antitumor activity | 124.0 mm^3 | 119.8 mm^3 | 124.0 mm^3 | 120.6 mm^3 | 106.8 mm^3 | 141.5 mm^3 | 141.5 ± 16.3 mm^3 | 92% | significant toxicity after the 2nd day of dosing | 0 | −0.125 | Delta Body Weight Loss ([2]; Day 3): −0.6; Delta Body Weight Loss ([2]; Day 5): −1.125; Delta Body Weight Loss ([2]; Day 6): −2.475; Delta Body Weight Loss ([2]; Day 7): −3.75
